Measurements taken from patent publication US9289421B2, “Methods and compositions for reducing serum levels of immunoglobulin E (IgE)” (priority 2011, dated 2016).
“Also recorded” adds a separate entry of the source.

Columns and labels:
[1] = system: serum levels of total IgE; assay: Total serum IgE by ELISA, OVA/ALUM sensitization and boost in BALB/c mice; assay type: in vivo; settings: for IgE levels: THC- or LPI-pretreated B/c mice, OVA/Alum
Procedure: (§1) In in vivo IgE-induction models using OVA/Alum or KLH/Ribi, the role of GPR55, in cannabinoid effects on antibody production has been investigated. BALB/c (B/c), C57BL/6 (B6), or B6 CB2 deficient (CB2^−/−) mice were pretreated with THC or L-α-lysophosphatidylinositol (LPI) prior to injections with OVA/Alum or KLH/Ribi, followed by boosting with same antigens. The mice were then bled on various days after boosting and total serum IgE was determined.
Mice were pretreated with SR2/Gp1a, Gp1a, or not pretreated, and 18 hrs later were sensitized with OVA/ALUM followed by a boost with same antigen. The sera were collected 6 days after the antigen boost injection and ELISAs were performed for IgE. Data represent sera from 4-8 mice/group+/−SEM. *=p≦0.05 from Normal; #=p≦0.05 from OVA/ALUM or SR2/OVA/ALUM.

[2] = system: serum levels of total IgE; assay: Total serum IgE by ELISA, OVA/ALUM sensitization and boost in C57BL/6 and CB2-/- mice; assay type: in vivo, C57BL/6 (B6) and CB2-/- mice; settings: for serum levels of total IgE: THC pretreatment
Procedure: FIG. 4 is a graph illustrating that serum levels of total IgE were increased with THC pretreatment over C57BL/6 (B6) mice; CB2 deficient mice (CB2^−/−) over B6; and THC pretreatment CB2^−/− over B6 and THC/B6. SR141716A (SR1; CB1 antagonist) pretreatment of CB2^−/− had little effect on total IgE levels. The mice were treated OVA/ALUM following a boost of same antigen. The sera were collected at Day 5-6 after the boost and ELISAs were performed. Data represent serum from individual mice (4-9 mice/group+/−SEM). *=p≦0.05 from Normal; #=p≦0.05 from OVA/ALUM; ##=p<0.05 from THC/OVA/ALUM
as §1

[3] = system: total serum IgE; assay: Total serum IgE, KLH/RIBI IgE-induction model in B6 and CB2-/- mice; assay type: in vivo, C57BL/6 (B6) and CB2-/- mice; settings: compared with OVA/ALUM
Procedure: as §1

[4] = system: total serum IgE; assay: Total serum IgE, KLH/Ribi IgE-induction model in BALB/c mice; assay type: in vivo; settings: THC-treated B/c mice
Procedure: as §1

## Cc1ccc2c(c1)Cc1c(C(=O)NN3CCCCC3)nn(-c3ccc(Cl)cc3Cl)c1-2 [Gp1a, N-(Piperidin-1-yl)-1-(2,4-dichlorophenyl)-1,4-dihydro-6-methylindeno[1,2-c]pyrazole-3-carboxamide]
[1]; BALB/c mice, pretreated 18 hrs before OVA/ALUM, sera 6 days after boost
  serum levels of total IgE: attenuates; also recorded: caused a decrease in IgE

## Cc1c(C(=O)NN2CCCCC2)nn(-c2ccc(Cl)cc2Cl)c1-c1ccc(Cl)cc1 [SR141716A]
[2]; B6 and CB2-/- mice, CB1 antagonist given prior to THC dosing
  IgE response: only slightly elevated
[2]; CB2-/- mice, SR1 pretreatment, OVA/ALUM
  total IgE levels: little effect

## Cc1ccc(Cn2nc(C(=O)N[C@@H]3C(C)(C)[C@@H]4CC[C@@]3(C)C4)cc2-c2ccc(Cl)c(C)c2)cc1 [SR144528, 5-(4-chloro-3-methylphenyl)-1-[(4-methylphenyl)methyl]-N-[(1S,2S,4R)-1,3,3-trimethylbicyclo[2.2.1]hept-2-yl]-1H-pyrazole-3-carboxamide]
[1]; BALB/c mice, co-treatment with Gp1a (SR2/Gp1a), OVA/ALUM
  effect on the Gp1a attenuation of serum total IgE: reversed; also recorded: reverses the Gp1a effect

## CCCCCc1cc(O)c2c(c1)OC(C)(C)[C@@H]1CCC(C)=C[C@@H]21 [THC, Δ^9-tetrahydrocannabinol]
[3]
  IgE levels: increased IgE levels greater than OVA/ALUM
[4]
  IgE levels: elevated
[2]; C57BL/6 (B6) mice, OVA/ALUM, sera Day 5-6 after boost
  serum levels of total IgE: increased
[2]; CB2-/- mice, OVA/ALUM, vs B6 and THC/B6
  serum levels of total IgE: increased; also recorded: augmented this effect
[1]
  IgE levels: elevated

## L-α-lysophosphatidylinositol [LPI]
[1]
  IgE levels: enhanced
